Reference: patent publication US20150040894A1 (VIRGINIA COMMONWEALTH UNIVERSITY, priority 2010, published 2015)

Columns and labels:
[1] = test system: IL-8 secretion from NHBE cells; experiment: LPS-induced IL-8 secretion from NHBE cells in culture (ELISA); format: cell-based, human
Protocol: NHBE cells (Lonza Walkersville, Walkersville, Md.) were plated at 3,500 cells/cm^2 in culture dishes in bronchial epithelial cell growth medium (BEGM) supplemented with the SingleQuot® kit (Lonza) without antibiotics and cultured at 37° C. in a 5% CO2 incubator. We used endotoxin-free media (<0.005 endotoxin units/ml) and second-passage cells for all experiments. Cells were grown to confluence for 6 days. Cultures without antibiotics were then transferred to 6-well or 35 mm dishes coated with type 1 rat-tail collagen and seeded at 3,500 cells/cm^2. The medium was changed every 24 h. To avoid influence of growth factors on cell signaling and IL-8 secretion, cells were cultured in supplement-free bronchial epithelial cell basal medium (BEBM) for 24 h before stimulation. We evaluated cell response at the time of cell confluence rather than normalize to the relative number of cells because cell maturation could affect cell signaling and cytokine secretion, and at confluence, all cells are at similar growth stages. Culture supernatants were collected and centrifuged for 5 min at 200×g and stored at −20° C. until assayed. IL-8 was measured by ELISA (Beckman Coulter, Inc., Brea, Calif.) according to the manufacturer's instructions. Concentrations in each sample were obtained by interpolation from standard curves, and calculated as the mean of the results at the sample dilution. […] We chose to assess cell response at the time of cell confluence rather than normalize to the relative number of cells, because cell maturation could potentially affect cell signaling and cytokine secretion, and at confluence, all cells are at similar growth stages.

[2] = test system: ERK1/2 phosphorylation in NHBE cells; experiment: LPS-induced phosphorylation of MAPKs (Western blotting); format: cell-based, human
Protocol: Membranes were stripped with a stripping buffer (100 mM 2-mercaptoethanol, 2% SDS, and 62.5 mM Tris/HCl pH 6.7) for 30 min at 30° C. The blots were reprobed with anti-p44/42 MAPK, anti-p38 MAPK, or anti-SAPK/JNK antibody (diluted 1:1000 for each), followed by anti-rabbit-IgG HRP secondary antibody (diluted 1:2000). To correct small differences in loading for NF-κB p65, blots were stripped, and reprobed with anti-human β-actin antibody (diluted 1:5000), followed by anti-mouse IgG HRP secondary antibody (diluted 1:5000). Western blot images were scanned and analyzed on NIH Image J software (18).

IL-8 release from NHEK = conditions: cited from earlier work
[3] = test system: LPS-inflamed ferret trachea; experiment: Mucociliary transport (MCT) on excised tracheal segments; format: in vivo; conditions: 5 days
Protocol: (§1) Twenty adult male ferrets (weight, 1.3 to 2.0 kg) were obtained from Marshall Farms (Rose, N.Y.). Ferrets were anesthetized with 40 mg/kg ketamine and 5 mg/kg xylazine, and exposed to endotoxin for 30 min once daily for 5 days by incubating with a 3.0 uncuffed endotracheal tube (ETT) coated with 10 mg of LPS mixed in 300 μl water soluble K-Y jelly (Johnson & Johnson, New Brunswick, N.J.) (Abanses et al., 2009). As controls, K-Y jelly without LPS was used in two ferrets.
This is equivalent to the oral dose used to treat persons with skin disease. For aerosol inhalation, ferrets were shallowly intubated with ETT, which was placed 1 cm below the larynx. […] Ferrets (body weight 1.5 kg) have 0.3-0.4 ml total lung lining fluid volume. Therefore, the dose delivered to the lung, is estimated to be 0.1 to 1.0 μg in this system given reported nebulization efficiency. […]
A tracheal segment was placed on a piece of gauze saturated with Ringer's solution in a chamber in which the relative humidity was maintained at 95 to 100% and the temperature was maintained at 22° C. to 24° C. MCT was measured by focusing a tracheal segment under a microscope with gradicule (grid line) eyepiece and recording the transport time of the leading edge of very fine shavings of plastic that were placed on the tracheal epithelium. […]

[4] = test system: LPS-inflamed ferret trachea; experiment: Intraepithelial neutrophil accumulation in LPS-inflamed ferret trachea; format: in vivo; conditions: 5 days
[5] = test system: NF-κB p65 phosphorylation in NHBE cells; experiment: LPS-induced phosphorylation of NF-κB p65 (Western blotting); format: cell-based, human
Protocol: After stimulation, the plated cells were washed with cold PBS, and then lysed on ice in a modified radio immunoprecipitation buffer (1% Nonidet P-40, 1% sodium deoxycholate, 150 mM NaCl, 10 mM Tris pH 7.5, 5 mM sodium pyrophosphate, 1 mM NaVO4, 5 mM NaF, 1 μg/ml aprotinin, 1 μg/ml leupeptin, and 0.1 mM PMSF) for 15 min and then scraped from the dishes. DNA was sheared by passing the lysate though a 27-gauge needle, and insoluble material was removed by centrifugation at 20,000 g for 15 min at 4° C. The protein concentration of the resulting supernatant was quantified by the DC protein assay (Bio-Rad, Hercules, Calif.). Equal amounts of protein extracts were loaded on a 12% SDS-PAGE mini gel and transferred to a nitrocellulose membrane (Bio-Rad). Membranes were blocked with blocking buffer (150 mM NaCl, 20 mM Tris, and 0.1% Tween 20, pH 7.6) containing 5% nonfat dry milk at 4° C. overnight. Subsequently, membranes were rinsed and incubated with the primary antibody: phospho (p)-p44/42 MAPK (Thr202/Tyr204) (diluted 1:2000), p-p38 MAPK (Thr180/Tyr182) (diluted 1:1000), p-SAPK/JNK (Thr183/Tyr185) (diluted 1:1000), or p-NF-κB p65 rabbit polyclonal IgG (diluted 1:1000) (Cell Signaling Technology), for 2 h at room temperature. The membranes were then incubated at room temperature for 1 h with the anti-rabbit IgG HRP secondary antibody (diluted 1:2000). Subsequently, the blots membranes were developed with LumiGLO chemiluminescent substrate peroxide (Cell Signaling Technology).
Membranes were stripped with a stripping buffer (100 mM 2-mercaptoethanol, 2% SDS, and 62.5 mM Tris/HCl pH 6.7) for 30 min at 30° C. The blots were reprobed with anti-p44/42 MAPK, anti-p38 MAPK, or anti-SAPK/JNK antibody (diluted 1:1000 for each), followed by anti-rabbit-IgG HRP secondary antibody (diluted 1:2000). […] Western blot images were scanned and analyzed on NIH Image J software (18).
The […] phosphorylation of NF-κB p65 was measured by Western blotting. The band intensity was calculated with NIH Image J software.

[6] = in vivo; cited from earlier work
[7] = Ferret activity, appetite and weight after tracheal LPS with and without dapsone; format: in vivo; conditions: LPS 5 days, 5-day dapsone treatment (oral or nebulized) vs vehicle
Protocol: as §1
This is equivalent to the oral dose used to treat persons with skin disease. For aerosol inhalation, ferrets were shallowly intubated with ETT, which was placed 1 cm below the larynx. […] Ferrets (body weight 1.5 kg) have 0.3-0.4 ml total lung lining fluid volume. Therefore, the dose delivered to the lung, is estimated to be 0.1 to 1.0 μg in this system given reported nebulization efficiency.

[8] = test system: steroid-dependent asthma patients; conditions: orally administered dapsone; cited from earlier work
[9] = test system: IL-8 mRNA expression in NHBE cells; experiment: IL-8 mRNA expression by real-time quantitative PCR; format: cell-based, human; conditions: 4 h
Protocol: For the relative quantification of IL-8 mRNA expression, the expression of glyceraldehyde-3-phosphate dehydrogenase (GAPDH) was served as an internal control. EvaGreen was used as a DNA intercalator dye to monitor amplified DNA quantification, and real-time quantitative PCR curves were analyzed by the CFX Manager™ software (Bio-Rad) in order to obtain threshold cycle (Ct) values for each sample. Quantification was based on a standard curve. Appropriate IL-8 and GADPH forward and reverse primers were used.

[10] = test system: apical and basolateral IL-8 secretion from ALI-conditioned NHBE cells; experiment: IL-8 secretion from NHBE cells cultured under air-liquid interface (ALI) condition; format: cell-based, human; conditions: dapsone 1 μg/ml in basolateral medium, LPS 10 μg/ml 24 h
Protocol: For NHBE cell differentiation, cells were plated at 2.0×10^5 cells/cm^2 onto polycarbonate inserts of 6.5-mm diameter, 0.4-μm pore size and 10-μm thickness (Costar Transwell Clear, Cambridge, Mass., USA) coated with type 1 rat-tail collagen, and cultured with serum-free DMEM/F12 medium containing ITS-A (1.0%; Invitrogen Co., Carlsbad, Calif.), epidermal growth factor (EGF) (recombinant human EGF, 0.5 ng/ml; Invitrogen Co.), triiodothyronine (10 ng/ml; […] Sigma-Aldrich), bovine serum albumin (2.0 μg/ml; Sigma-Aldrich) and bovine pituitary extract (30 μg/ml; Invitrogen Co.). After achieving confluence, the apical medium was removed, and cells were cultured with an air-liquid-interface (ALI) method. The culture medium was changed every 48 h, and cells were maintained at 37° C. in a 5% CO2, for 10-14 days. Culture supernatants were collected and centrifuged for 5 min at 200×g and stored at −20° C. until assayed. IL-8 was measured by ELISA (Beckman Coulter, Inc., Brea, Calif.) according to the manufacturer's instructions. Concentrations in each sample were obtained by interpolation from standard curves, and calculated as the mean of the results at the sample dilution. […] NHBE cells were stimulated with LPS from the apical (AP-LPS) or basolateral side (BL-LPS) for 24 h, and IL-8 secretion levels in both chambers were measured. […]

[11] = test system: IL-13 induced goblet cell hyperplasia in NHBE cells; experiment: In vitro model of IL-13 induced goblet cell hyperplasia, ALI-conditioned NHBE cells; format: cell-based, human
From the text: Globlet cells are columnar epithelial cells whose sole function is to secrete mucin, which dissolves in water to form mucus. […] An in vitro model of goblet cell hyperplasia was developed using normal human bronchial epithelial (NHBE) cells cultured under air-liquid interface (ALI) conditions.

SMILES: COc1cccc(-c2cc(=O)c3ccccc3o2)c1N [PD98059, 2′-amino-3′-methoxyflavone]
- LPS-induced IL-8 secretion ([1]; PD98059 20 μM added 1 h before LPS): did not inhibit
- LPS-induced ERK1/2 phosphorylation ([2]; PD98059 20 μM added 1 h before LPS 10 μg/ml, 4 h): abolished

SMILES: Nc1ccc(S(=O)(=O)c2ccc(N)cc2)cc1 [dapsone, 4,4′-diaminodiphenyl sulfone]
- basal IL-8 secretion ([1]; dapsone 1 μg/ml, 48 and 72 h, no LPS): did not affect
- LPS-induced IL-8 secretion over time ([1]; dapsone 1 μg/ml, LPS 10 μg/ml, up to 72 h): significantly and persistently decreased
- LPS-induced IL-8 secretion ([1]; dapsone 0.3, 1 or 10 μg/ml, LPS 10 μg/ml, 24 h, P<0.01 for each): suppressed
- basal IL-8 level (IL-8 release from NHEK; NHEK): did not depress
- bullous pemphigoid IgG-mediated IL-8 release (IL-8 release from NHEK; dapsone in a therapeutic concentration): inhibited
- LPS-induced ERK1/2 phosphorylation at 1 h ([2]; dapsone 1 μg/ml, LPS 10 μg/ml, 1 h, P<0.05): inhibited
- LPS-induced ERK1/2 phosphorylation after 4 h ([2]; dapsone 1 μg/ml, LPS 10 μg/ml, after 4 h): this effect disappeared
- MCT velocity ([3]; aerosol dapsone 0.5 mg/ml, 15 min once daily, P=0.007 vs LPS control, normal approximately 7 mm/min): 6 mm/min
- MCT ([3]; oral dapsone 2 mg/kg daily, P=0.09, LPS alone 1-3 mm/minute): the increase was not significant
- neutrophil accumulation in tracheal epithelium ([4]; nebulized dapsone 0.5 mg/ml, 15 min once daily, P<0.05): significantly inhibited
- neutrophil recruitment in tracheal epithelium ([4]; oral dapsone 2 mg/kg daily, P=0.3): tended to inhibit
- NF-κB p65 activation ([5]; dapsone 0.3 μg/mL): did not significantly inhibit
- LPS-induced NF-κB p65 phosphorylation ([5]; dapsone 1 μg/ml, LPS 10 μg/ml, 15 min to 2 h, to the control level): significantly inhibited
- dose dependence of inhibition of NF-κB p65 phosphorylation ([5]; dapsone 0.3, 1 and 10 μg/ml (P=0.16 for 0.3; P<0.01 for 1 and 10 μg/ml)): dose-dependent
- therapeutic serum levels [6]: 0.5 to 5 µg/mL
- ferret activity or appetite [7]: no measurable effect
- ferret weight over 9 days [7]: no difference
- patients able to substantially reduce or stop taking steroids [8]: 9 out of 10
- basal IL-8 mRNA level ([9]; dapsone 1 μg/ml): did not influence
- LPS-induced IL-8 mRNA over expression ([9]; dapsone 1 and 10 μg/ml, LPS 10 μg/ml, P<0.05 for each): significantly inhibited
- basolateral IL-8 increased by AP- or BL-LPS ([10]; P<0.001 AP-LPS, P<0.01 BL-LPS): inhibited
- apical IL-8 level increased by AP-LPS ([10]; P<0.05): inhibited
- growth of ALI-conditioned NHBE cells ([11]; dapsone 3 μg/ml, no IL-13): no measurable effect
- amount and extent of IL-13 induced goblet cell hyperplasia ([11]; dapsone 10 μg/ml, vs control cell cultures): decreased

SMILES: C[C@@H]1C[C@H]2[C@@H]3CCC4=CC(=O)C=C[C@]4(C)[C@@]3(F)[C@@H](O)C[C@]2(C)[C@@]1(O)C(=O)CO [DEX, dexamethasone]
- decrease of basal IL-8 mRNA level ([9]; DEX 0.1 μg/ml, P<0.05): ~40%
